Test results taken from US9938249B2, “Anti-amyloid compounds containing benzofurazan” (Treventis Corporation, priority 2014, dated 2018).

Target: Terminally biotinylated beta-amyloid (Aβ42) (Homo sapiens, UniProt P05067)
Experiment: Aβ42 biotinylated (biotin-AB) oligomerization assay, NeutrAvidin capture ELISA
Assay type: biochemical
Details: approximate value; 1 hr oligomerization at room temperature; read-out: IC50 Aβ 42-bio
Experimental: Aβ42 Biotinylated Assay Terminally biotinylated beta-amyloid (biotin-AB) was dissolved in HFIP at the concentration of 1 mg/ml and aliquoted to 50 μl/tube in 0.65 ml colored microfuge tubes (Fisher 02-681-248). The aliquots were diluted immediately by adding 450 μl of HFIP to 0.1 mg/ml. Approximately 46 ul (containing approximately 4.6 ug of biotin-AB) were taken from a tube, 100 ul of HFIP added, vortexed, and dried to a thin film under an N2 stream. 100 μl of trifluoroacetic acid (TFA) was added and vortexed. After 10 minute incubation at room temperature in a hood, resulting in disaggregation of seeds, the sample was vortexed again and dried again to a thin film under an N2 stream. 100 μl of HFIP was added, mixed, and the biotin-AB sample was dried for a third time under an N2 stream to remove residual TFA. The treated biotin-AB was dissolved in DMSO to a final peptide concentration of […] (SOX). An ELISA “capture” plate (Costar 9018) was coated with 50 μl of 1 μg/ml NeutrAvidin™ (NA) in 10 mM sodium phosphate buffer, pH 7.5. (NeutrAvidin can be prepared as 1 mg/ml (1000×) in milliQ water/10% glycerol and stored at −80° C. before use.) The plate was sealed plate with adhesive film and stored at 4° C. overnight, then blocked for 2 hours (unsealed) at room temperature with 200 μl/well OFB+0.1% v/v Tween 20. The “capture” plate was allowed to come to room temperature. Several dilutions of test compound were prepared with 100% DMSO, according to the desired concentration to be tested. 2.5 μl of diluted test compound was pipetted into the bottom of each well of a 96-well “dilution” polypropylene plate (Costar 3365), to which was added 250 ul of Oligomer Formation Buffer (OFB: 20 mM sodium phosphate, pH 7.5-150 mM NaCl). To begin oligomerization, 2 μl/well of the biotin-AB was added to the bottom of each well of a 96-well “reaction” polypropylene plate (Costar 3365) and 100 ul of each well of the “dilution” plate was transferred to the “reaction” plate (final concentration of DMSO being up to 1%). The reaction plate was sealed and incubated for 1 hr at room temperature without shaking. The reaction was then stopped by the addition of 50 ul of 0.3% Tween 20 in water. The “capture” plate blocking solution was removed, and 50 ul of each well of the “reaction” plate was transferred to each well of the “capture” plate. The “capture” plate was sealed and incubated for 2 hours at room temperature with shaking at 150 rpm. The “capture” plate was then washed on a plate washer (3×) with 200 ul/well TBST (20 mM Tris-HCL, pH 7.5/150 mM NaCl/0.1% Tween 20). 50 ul of Streptavidin-horseradish […] (1:20,000 dilution) in OFB+0.1% Tween 20 was added to each well, the “capture” plate was sealed and incubated for 1 hr with shaking at 150 rpm. As before, the plate was washed, then 100 ul of TMB/H2O2 substrate solution was added to each well. After 5-10 minutes, 100 ul of 1% v/v sulfuric acid was added and the absorbance of each well was read at 450 nm using a standard plate reader. Data is summarized in the table below; numbers given in parenthesis for the Aβ 40 Thioflavin T assays are the values in that particular experiment for compound ID 1027, given as the first entry in this table for structural comparison. “IC50 Aβ42-bio” column refers to the approximate value of the Aβ42 biotinylated assay IC50 in micromoles/L.

Sequence of Terminally biotinylated beta-amyloid (Aβ42) (P05067 672-713, species assumed): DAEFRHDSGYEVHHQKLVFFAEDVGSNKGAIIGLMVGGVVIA

Row | SMILES | IC50
1 | OC(c1nc(-c2cc(N3CC(CN4CCOCC4)C3)c3nonc3c2)cs1)C(F)(F)F (stereo not shown) [compound 1627] | 10.4 µM
2 | OC(c1cccnc1-c1cc(N2CC(CN3CCOCC3)C2)c2nonc2c1)C(F)(F)F (stereo not shown) [compound 1563, 2,2,2-trifluoro-1-(2-(7-(3-(morpholinomethyl)azetidin-1-yl)benzo[c][1,2,5]oxadiazol-5-yl)pyridin-3-yl)ethan-1-ol] | > 20 µM
3 | OC(c1cnc(-c2cc(N3CC(CN4CCCC4)C3)c3nonc3c2)s1)C(F)(F)F (stereo not shown) [compound 1597] | 7.5 µM
4 | OCc1cc(N2CC(CN3CCOCC3)C2)c2nonc2c1 [compound 1571, (7-(3-(morpholinomethyl)azetidin-1-yl)benzo[c][1,2,5]oxadiazol-5-yl)methanol] | > 20 µM
5 | FC(F)(F)c1nc(-c2cc(N3CC(CN4CCOCC4)C3)c3nonc3c2)no1 [compound 1643, 4-(3-(morpholinomethyl)azetidin-1-yl)-6-(5-(trifluoromethyl)-1,2,4-oxadiazol-3-yl)benzo[c][1,2,5]oxadiazole] | 14.2 µM
6 | NC(=O)c1cccc(-c2cc(N3CC(CN4CCCC4)C3)c3nonc3c2)c1 [compound 1609, 3-(7-(3-(pyrrolidin-1-ylmethyl)azetidin-1-yl)benzo[c][1,2,5]oxadiazol-5-yl)benzamide] | 2.4 µM
7 | CC(C)(O)c1nc(-c2cc(N3CC(CN4CCOCC4)C3)c3nonc3c2)no1 [compound 1628] | 33.1 µM
8 | OC(c1ncccc1-c1cc(N2CC(CN3CCOCC3)C2)c2nonc2c1)C(F)(F)F (stereo not shown) [compound 1569, 2,2,2-trifluoro-1-(3-(7-(3-(morpholinomethyl)azetidin-1-yl)benzo[c][1,2,5]oxadiazol-5-yl)pyridin-2-yl) ethan-1-ol] | 11.5 µM
9 | OC1(c2cc(N3CC(CN4CCOCC4)C3)c3nonc3c2)CC(OCc2ccccc2)C1 (stereo not shown) [compound 1692, 3-(benzyloxy)-1-(7-(3-(morpholinomethyl)azetidin-1-yl)benzo[c][1,2,5]oxadiazol-5-yl) cyclobutan-1-ol] | 5.6 µM
10 | OC(c1ncc(-c2cc(N3CC(CN4CCOCC4)C3)c3nonc3c2)o1)C(F)(F)F (stereo not shown) [compound 1677] | 26.1 µM
11 | OC(c1cccc(-c2cc(N3CC(CN4CCOCC4)C3)c3nonc3c2)n1)C(F)(F)F (stereo not shown) [compound 1619, 2,2,2-trifluoro-1-(6-(7-(3-(morpholinomethyl)azetidin-1-yl)benzo[c][1,2,5]oxadiazol-5-yl)pyridin-2-yl)ethan-1-ol] | 11.3 µM
12 | N#Cc1cc(N2CC(CN3CCOCC3)C2)c2nonc2c1 [compound 1570, 7-(3-(morpholinomethyl)azetidin-1-yl) benzo[c][1,2,5]oxadiazole-5-carbonitrile] | > 20 µM
13 | CC(C)(O)C1CC1c1cc(N2CC(CN3CCOCC3)C2)c2nonc2c1 (stereo not shown) [compound 1666, 2-(2-(7-(3-(morpholinomethyl)azetidin-1-yl)benzo[c][1,2,5]oxadiazol-5-yl)cyclopropyl)propan-2-ol] | > 20 µM
14 | COc1cc(-c2cc(N3CC(CN4CCOCC4)C3)c3nonc3c2)ccc1C1CC1 [compound 1660, 6-(4-cyclopropyl-3-methoxyphenyl)-4-(3-(morpholinomethyl)azetidin-1-yl) benzo[c][1,2,5]oxadiazole] | 3.9 µM
15 | Cc1cc(C)c(-c2cc(N3CC(CN4CCCC4)C3)c3nonc3c2)c(C)c1 [compound 1558] | 5.9 µM
16 | OCc1ccccc1-c1cc(N2CC(CN3CCOCC3)C2)c2nonc2c1 [compound 1572] | > 20 µM
17 | OCc1coc(-c2cc(N3CC(CN4CCOCC4)C3)c3nonc3c2)n1 [compound 1606, (2-(7-(3-(morpholinomethyl)azetidin-1-yl)benzo[c][1,2,5]oxadiazol-5-yl)oxazol-4-yl)methanol] | > 20 µM

Row | SMILES | IC50
18 | CC(C)(O)c1ccc(-c2cc(N3CC(CN4CCOCC4)C3)c3nonc3c2)cc1 [compound 1616] | 16.2 µM
19 | COc1ccc(-c2cc(N3CC(CN4CCOCC4)C3)c3nonc3c2)cc1OC [compound 1573, 6-(3,4-dimethoxyphenyl)-4-(3-(morpholinomethyl)azetidin-1-yl) benzo[c][1,2,5]oxadiazole] | 12.9 µM
20 | CC(=O)N1CCCCC1c1cc(N2CC(CN3CCCC3)C2)c2nonc2c1 (stereo not shown) [compound 1555] | 5 µM
21 | OC(c1ccc(-c2cc(N3CC(CN4CCOCC4)C3)c3nonc3c2)nc1)C(F)(F)F (stereo not shown) [compound 1622, 2,2,2-trifluoro-1-(6-(7-(3-(morpholinomethyl)azetidin-1-yl)benzo[c][1,2,5]oxadiazol-5-yl)pyridin-3-yl)ethan-1-ol] | 5.8 µM
22 | OC(c1cc(-c2cc(N3CC(CN4CCOCC4)C3)c3nonc3c2)cs1)C(F)(F)F (stereo not shown) [compound 1568, 2,2,2-trifluoro-1-(4-(7-(3-(morpholinomethyl)azetidin-1-yl)benzo[c][1,2,5]oxadiazol-5-yl)thiophen-2-yl) ethan-1-ol] | 5.5 µM
23 | OC1(c2ccc(-c3cc(N4CCC(N5CCOCC5)CC4)c4nonc4c3)cc2)COC1 [compound 1717] | 22.6 µM
24 | c1ccc(-c2cc(N3CC(CN4CCCC4)C3)c3nonc3c2)nc1 [compound 1580, 6-(Pyridin-2-yl)-4-(3-(pyrrolidin-1-ylmethyl)azetidin-1-yl)benzo[c][1,2,5]oxadiazole] | > 20 µM
25 | NC(=O)c1ccc(-c2cc(N3CC(CN4CCOCC4)C3)c3nonc3c2)cc1 [compound 1610, 4-(7-(3-(morpholinomethyl)azetidin-1-yl)benzo[c][1,2,5]oxadiazol-5-yl)benzamide] | > 20 µM
26 | OC(c1ccnc(-c2cc(N3CC(CN4CCOCC4)C3)c3nonc3c2)c1)C(F)(F)F (stereo not shown) [compound 1620, 2,2,2-trifluoro-1-(2-(7-(3-(morpholinomethyl)azetidin-1-yl)benzo[c][1,2,5]oxadiazol-5-yl)pyridin-4-yl)ethan-1-ol] | 11.1 µM
27 | N#Cc1ccc(-c2cc(N3CC(CN4CCOCC4)C3)c3nonc3c2)cc1 [compound 1574, 4-(7-(3-(morpholinomethyl)azetidin-1-yl)benzo[c][1,2,5]oxadiazol-5-yl)benzonitrile] | 16.5 µM
28 | Fc1cc(F)cc(-c2cc(N3CC(CN4CCOCC4)C3)c3nonc3c2)c1 [compound 1588, 6-(3,5-difluorophenyl)-4-(3-(morpholinomethyl)azetidin-1-yl) benzo[c][1,2,5]oxadiazole] | 30.2 µM
29 | COc1ccc(-c2cc(N3CC(CN4CCOCC4)C3)c3nonc3c2)cc1F [compound 1585, 6-(3-fluoro-4-methoxyphenyl)-4-(3-(morpholinomethyl)azetidin-1-yl) benzo[c][1,2,5]oxadiazole] | 5.8 µM
30 | c1csc(-c2cc(N3CC(CN4CCCC4)C3)c3nonc3c2)n1 [compound 1560] | 6.7 µM
31 | COc1cc(-c2cc(N3CC(CN4CCOCC4)C3)c3nonc3c2)ccn1 [compound 1659, 6-(2-methoxypyridin-4-yl)-4-(3-(morpholinomethyl)azetidin-1-yl) benzo[c][1,2,5]oxadiazole] | 12.4 µM
32 | OC(c1ccc(-c2cc(N3CC(CN4CCOCC4)C3)c3nonc3c2)s1)C(F)(F)F (stereo not shown) [compound 1562, 2,2,2-trifluoro-1-(5-(7-(3-(morpholinomethyl)azetidin-1-yl)benzo[c][1,2,5]oxadiazol-5-yl)thiophen-2-yl)ethan-1-ol] | 2.7 µM
33 | OC(c1cccnc1-c1cc(N2CC(CN3CCCC3)C2)c2nonc2c1)C(F)(F)F (stereo not shown) [compound 1564, 2,2,2-trifluoro-1-(2-(7-(3-(pyrrolidin-1-ylmethyl)azetidin-1-yl)benzo[c][1,2,5]oxadiazol-5-yl)pyridin-3-yl) ethan-1-ol] | 6 µM
34 | Cn1ncc(-c2cc(N3CC(CN4CCOCC4)C3)c3nonc3c2)c1C(O)C(F)(F)F (stereo not shown) [compound 1647] | 14.7 µM
